According to patent US7531482B2, “Thieno-pyrimidine compounds having fungicidal activity” (Dow AgroSciences LLC, priority 2005, dated 2009):

Experiments:
Format in all cases: in vivo
[1] = test system: Magnaporthe grisea=Pyricularia oryzae; test: whole plant or invertebrate; settings: Pyricularia oryzae, foliar, read-out: PYRIOR disease control, 8.3 ppm (footnote c), rice foliage
[2] = test system: Mycosphaerella graminicola=Septoria tritici; test: Speckled Leaf Blotch of Wheat (SEPTTR) whole-plant disease control test; settings: Mycosphaerella, foliar, 75 ppm applied to foliage of wheat; read-out: SEPTTR disease control
Leptosphaeria nodorum = test: Glume Blotch of Wheat (LEPTNO) whole-plant disease control test; settings: Parastagonospora nodorum, foliar; 75 ppm (footnote b), wheat foliage
[3] = test system: Puccinia recondita tritici; test: Leaf Rust of Wheat (PUCCRT) whole-plant disease control test; settings: Puccinia recondita, foliar, 8.3 ppm (footnote c), wheat foliage

SMILES | pest or weed control at 8.3 ppm [1] [%] | pest or weed control at 75 ppm [2] [%] | pest or weed control at 75 ppm (Leptosphaeria nodorum) [%] | pest or weed control at 8.3 ppm [3] [%]
COc1ccc([N+](=O)[O-])c(Oc2ccc(CCNc3ncnc4scc(Cl)c34)cc2)n1 [Compound 116] | 0 to 49 | 0 to 49 | 0 to 49 | 80 to 100
Clc1csc2ncnc(NCCc3ccc(Oc4nnc(COc5ccccc5)s4)cc3)c12 [Compound 119] | 80 to 100 | 0 to 49 | 0 to 49 | 80 to 100
NC(=O)c1cccc(Oc2ccc(CCNc3ncnc4scc(Cl)c34)cc2)n1 [Compound 82] | 80 to 100 | 50 to 79 | 50 to 79 | 80 to 100
CC(=O)c1cccc(Oc2ccc(CCNc3ncnc4scc(Cl)c34)cc2)n1 [Compound 100] | 80 to 100 | – | 0 to 49 | 80 to 100
Clc1csc2ncnc(NCCc3ccc(Oc4nnc(-c5ccncc5)s4)cc3)c12 [Compound 118] | 80 to 100 | 0 to 49 | 0 to 49 | 80 to 100
O=c1ncn(-c2cccc(Oc3ccc(CCNc4ncnc5scc(Cl)c45)cc3)n2)[nH]1 [Compound 90] | 50 to 79 | 50 to 79 | 0 to 49 | 0 to 49
C[S+]([O-])c1cc(Cl)nc(Oc2ccc(CCNc3ncnc4scc(Cl)c34)cc2)c1 (centres unmarked) [Compound 92] | 80 to 100 | 50 to 79 | 0 to 49 | 80 to 100
FC(F)(F)COc1ccnc(Oc2ccc(CCNc3ncnc4scc(Cl)c34)cc2)c1 [Compound 127] | – | 50 to 79 | 80 to 100 | 80 to 100
COc1cccc(Oc2ccc(CCNc3ncnc4scc(Cl)c34)cc2)n1 [Compound 84, (5-Chlorothieno[2,3-d]pyrimidin-4-yl)-{2-[4-(6-methoxypyridin-2-yloxy)phenyl]ethyl}amine] | 80 to 100 | 50 to 79 | 50 to 79 | 80 to 100
FC(F)(F)COc1cccc(Oc2ccc(CCNc3ncnc4scc(Cl)c34)cc2)n1 [Compound 111] | 80 to 100 | 50 to 79 | 0 to 49 | 50 to 79
Nc1c(F)c(F)nc(Oc2ccc(CCNc3ncnc4scc(Cl)c34)cc2)c1F [Compound 128] | 80 to 100 | – | – | 80 to 100
CSc1cc(C(F)(F)F)cc(Oc2ccc(CCNc3ncnc4scc(Cl)c34)cc2)n1 [Compound 93] | 80 to 100 | 50 to 79 | 0 to 49 | 80 to 100
O=[N+]([O-])c1cccc(Oc2ccc(CCNc3ncnc4scc(Cl)c34)cc2)n1 [Compound 83] | 80 to 100 | 50 to 79 | 50 to 79 | 80 to 100
O=C(O)c1ccc(C(F)(F)F)nc1Oc1ccc(CCNc2ncnc3scc(Cl)c23)cc1 [Compound 98] | 0 to 49 | 50 to 79 | 0 to 49 | 0 to 49
COc1cnc(C(F)(F)F)c(F)c1Oc1ccc(CCNc2ncnc3scc(Cl)c23)cc1 [Compound 113] | 80 to 100 | 0 to 49 | 0 to 49 | 80 to 100
CC(C)Cc1nnc(Oc2ccc(CCNc3ncnc4scc(Cl)c34)cc2)s1 [Compound 117] | 80 to 100 | 0 to 49 | 0 to 49 | 80 to 100
CC(C)(C)c1noc(-c2cccc(Oc3ccc(CCNc4ncnc5scc(Cl)c45)cc3)n2)n1 [Compound 96] | 50 to 79 | 50 to 79 | 50 to 79 | 80 to 100
O=Cc1sc(Oc2ccc(CCNc3ncnc4scc(Cl)c34)cc2)nc1Cl [Compound 121] | 80 to 100 | 0 to 49 | 0 to 49 | 80 to 100
